Reference: the supplement of paper PMC12463676, “Small-molecule dissolution of stress granules by redox modulation benefits ALS models” (Nature Chemical Biology, 2025)

compound: NC(=O)CCCCC1CCSS1 [lipoamide]; assay: thermal stability z-score vs DMSO; higher = more thermally stabilized by treatment; settings: HeLa; lipoamide concentration 100 µM; arsenate co-treatment: 1 mM arsenate 1 h
Procedure: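 Cellular thermal proteome profiling in HeLa cells. Cells were treated with 100 µM lipoamide for 1 h, with or without 1 mM arsenate for a further 1 h, then heated to ten temperatures (37-66.3 °C), and soluble protein was quantified by TMT mass spectrometry relative to 0.1% DMSO controls. The thermal stability score (sum of log2 fold changes minus the abundance score) was transformed to a z-score; mean of n = 3 experiments.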
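Note: each temperature applied for 3 min, abundance score taken as mean log2 fold change at the two lowest temperatures, z-score obtained by mean subtraction and division by SD.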

UniProt P52758, sequence (P52758 whole entry): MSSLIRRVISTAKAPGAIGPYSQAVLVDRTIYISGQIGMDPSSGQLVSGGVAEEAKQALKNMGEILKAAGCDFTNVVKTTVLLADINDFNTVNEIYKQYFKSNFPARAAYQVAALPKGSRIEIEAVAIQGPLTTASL
UniProt Q9UJW0, sequence (Q9UJW0 whole entry): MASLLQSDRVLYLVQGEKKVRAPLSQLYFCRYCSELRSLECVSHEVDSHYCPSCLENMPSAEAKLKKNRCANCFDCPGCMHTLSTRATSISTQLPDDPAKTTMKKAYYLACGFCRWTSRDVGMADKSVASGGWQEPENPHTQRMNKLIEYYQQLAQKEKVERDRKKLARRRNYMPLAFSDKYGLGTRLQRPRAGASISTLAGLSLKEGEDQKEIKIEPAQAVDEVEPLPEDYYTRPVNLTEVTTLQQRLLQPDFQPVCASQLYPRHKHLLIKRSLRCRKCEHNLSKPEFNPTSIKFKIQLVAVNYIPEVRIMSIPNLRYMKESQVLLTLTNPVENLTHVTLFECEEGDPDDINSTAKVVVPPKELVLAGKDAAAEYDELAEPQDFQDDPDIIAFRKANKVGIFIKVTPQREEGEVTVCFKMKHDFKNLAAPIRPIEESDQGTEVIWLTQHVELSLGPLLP
UniProt P00973, sequence (P00973 whole entry): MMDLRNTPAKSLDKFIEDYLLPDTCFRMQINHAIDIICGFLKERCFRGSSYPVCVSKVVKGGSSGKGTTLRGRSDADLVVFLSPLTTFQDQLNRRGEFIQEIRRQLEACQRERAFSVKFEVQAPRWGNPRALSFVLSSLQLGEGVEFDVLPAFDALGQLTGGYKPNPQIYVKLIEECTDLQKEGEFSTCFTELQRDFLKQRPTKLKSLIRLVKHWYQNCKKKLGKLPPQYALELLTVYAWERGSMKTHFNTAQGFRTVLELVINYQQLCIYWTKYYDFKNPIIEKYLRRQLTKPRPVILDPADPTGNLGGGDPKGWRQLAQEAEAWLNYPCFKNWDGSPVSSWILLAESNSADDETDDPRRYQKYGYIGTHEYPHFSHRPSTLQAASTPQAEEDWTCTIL
UniProt Q96P48, sequence (Q96P48 whole entry): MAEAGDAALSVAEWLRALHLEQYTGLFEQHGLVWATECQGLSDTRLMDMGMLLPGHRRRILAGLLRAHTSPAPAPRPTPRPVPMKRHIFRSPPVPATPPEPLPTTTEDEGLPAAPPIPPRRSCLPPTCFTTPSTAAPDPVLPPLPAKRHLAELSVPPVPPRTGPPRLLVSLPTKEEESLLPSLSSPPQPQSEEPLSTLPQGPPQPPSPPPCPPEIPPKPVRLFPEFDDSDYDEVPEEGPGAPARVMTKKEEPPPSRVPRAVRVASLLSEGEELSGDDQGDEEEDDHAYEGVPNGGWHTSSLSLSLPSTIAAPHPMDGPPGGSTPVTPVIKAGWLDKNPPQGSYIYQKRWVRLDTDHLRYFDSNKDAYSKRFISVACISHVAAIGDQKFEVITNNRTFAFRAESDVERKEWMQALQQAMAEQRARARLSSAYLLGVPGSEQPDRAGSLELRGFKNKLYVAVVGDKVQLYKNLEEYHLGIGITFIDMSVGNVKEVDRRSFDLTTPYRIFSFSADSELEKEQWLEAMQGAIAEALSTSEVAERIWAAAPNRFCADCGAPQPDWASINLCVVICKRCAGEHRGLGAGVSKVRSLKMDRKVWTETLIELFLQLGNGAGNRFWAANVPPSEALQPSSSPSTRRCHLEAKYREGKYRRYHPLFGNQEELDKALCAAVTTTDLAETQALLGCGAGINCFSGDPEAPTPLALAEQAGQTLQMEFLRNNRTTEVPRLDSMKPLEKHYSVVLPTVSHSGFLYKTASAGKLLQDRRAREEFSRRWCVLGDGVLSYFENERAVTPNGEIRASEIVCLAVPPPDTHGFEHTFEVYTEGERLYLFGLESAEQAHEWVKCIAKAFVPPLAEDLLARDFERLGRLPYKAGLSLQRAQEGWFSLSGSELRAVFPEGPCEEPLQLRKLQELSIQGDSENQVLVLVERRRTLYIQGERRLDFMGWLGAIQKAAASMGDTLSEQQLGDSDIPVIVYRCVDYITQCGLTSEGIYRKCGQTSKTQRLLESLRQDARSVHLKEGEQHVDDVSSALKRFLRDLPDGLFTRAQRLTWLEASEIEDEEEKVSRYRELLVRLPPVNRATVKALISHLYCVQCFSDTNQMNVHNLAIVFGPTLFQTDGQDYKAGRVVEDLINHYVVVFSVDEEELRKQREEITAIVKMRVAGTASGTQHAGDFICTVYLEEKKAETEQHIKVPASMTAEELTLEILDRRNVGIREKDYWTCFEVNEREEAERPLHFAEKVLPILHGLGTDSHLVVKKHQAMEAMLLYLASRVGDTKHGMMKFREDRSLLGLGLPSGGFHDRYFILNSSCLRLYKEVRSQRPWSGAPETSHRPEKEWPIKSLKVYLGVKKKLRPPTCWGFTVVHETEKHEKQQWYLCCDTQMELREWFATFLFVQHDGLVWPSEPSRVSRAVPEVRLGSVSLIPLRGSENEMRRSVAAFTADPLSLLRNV
UniProt Q6P3W7, sequence (Q6P3W7 whole entry): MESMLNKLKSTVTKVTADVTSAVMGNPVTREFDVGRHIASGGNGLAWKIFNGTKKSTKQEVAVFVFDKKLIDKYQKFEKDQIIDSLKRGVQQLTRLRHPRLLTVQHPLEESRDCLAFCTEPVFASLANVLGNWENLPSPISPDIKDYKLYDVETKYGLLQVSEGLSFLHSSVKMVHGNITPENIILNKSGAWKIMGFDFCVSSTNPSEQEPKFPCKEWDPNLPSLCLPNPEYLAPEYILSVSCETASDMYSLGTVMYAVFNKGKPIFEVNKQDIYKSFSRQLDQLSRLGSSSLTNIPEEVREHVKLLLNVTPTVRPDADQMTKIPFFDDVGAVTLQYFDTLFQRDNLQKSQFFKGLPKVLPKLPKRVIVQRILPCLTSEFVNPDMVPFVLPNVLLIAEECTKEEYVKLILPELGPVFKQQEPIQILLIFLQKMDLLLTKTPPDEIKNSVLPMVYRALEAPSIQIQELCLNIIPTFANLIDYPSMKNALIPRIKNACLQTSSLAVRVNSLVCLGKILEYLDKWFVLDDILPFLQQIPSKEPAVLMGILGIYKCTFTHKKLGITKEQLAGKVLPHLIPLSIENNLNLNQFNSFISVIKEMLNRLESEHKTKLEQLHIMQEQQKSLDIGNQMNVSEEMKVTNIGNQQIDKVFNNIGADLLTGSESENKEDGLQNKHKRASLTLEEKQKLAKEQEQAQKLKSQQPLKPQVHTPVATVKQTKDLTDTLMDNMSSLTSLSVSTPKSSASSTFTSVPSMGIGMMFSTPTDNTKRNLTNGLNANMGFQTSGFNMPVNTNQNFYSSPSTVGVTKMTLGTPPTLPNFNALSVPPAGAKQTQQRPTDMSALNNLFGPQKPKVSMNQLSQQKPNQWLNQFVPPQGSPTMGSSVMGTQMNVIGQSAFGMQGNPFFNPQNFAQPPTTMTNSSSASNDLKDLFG
UniProt P23919, sequence (P23919 whole entry): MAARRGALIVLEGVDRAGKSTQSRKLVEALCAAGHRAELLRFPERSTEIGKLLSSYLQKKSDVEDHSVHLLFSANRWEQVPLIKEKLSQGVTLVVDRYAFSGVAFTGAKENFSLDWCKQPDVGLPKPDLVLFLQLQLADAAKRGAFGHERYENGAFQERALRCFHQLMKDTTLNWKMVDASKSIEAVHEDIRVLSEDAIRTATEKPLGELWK
UniProt Q8WWH5, sequence (Q8WWH5 whole entry): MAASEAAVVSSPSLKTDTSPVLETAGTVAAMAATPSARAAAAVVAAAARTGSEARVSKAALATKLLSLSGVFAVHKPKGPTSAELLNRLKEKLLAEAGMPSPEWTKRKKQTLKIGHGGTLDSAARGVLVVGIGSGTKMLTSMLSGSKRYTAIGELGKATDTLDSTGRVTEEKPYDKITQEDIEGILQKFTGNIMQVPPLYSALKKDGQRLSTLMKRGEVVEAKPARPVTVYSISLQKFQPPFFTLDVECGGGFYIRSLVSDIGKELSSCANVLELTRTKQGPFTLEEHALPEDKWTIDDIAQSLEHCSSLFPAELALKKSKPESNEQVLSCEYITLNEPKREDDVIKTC
UniProt Q07960, sequence (Q07960 whole entry): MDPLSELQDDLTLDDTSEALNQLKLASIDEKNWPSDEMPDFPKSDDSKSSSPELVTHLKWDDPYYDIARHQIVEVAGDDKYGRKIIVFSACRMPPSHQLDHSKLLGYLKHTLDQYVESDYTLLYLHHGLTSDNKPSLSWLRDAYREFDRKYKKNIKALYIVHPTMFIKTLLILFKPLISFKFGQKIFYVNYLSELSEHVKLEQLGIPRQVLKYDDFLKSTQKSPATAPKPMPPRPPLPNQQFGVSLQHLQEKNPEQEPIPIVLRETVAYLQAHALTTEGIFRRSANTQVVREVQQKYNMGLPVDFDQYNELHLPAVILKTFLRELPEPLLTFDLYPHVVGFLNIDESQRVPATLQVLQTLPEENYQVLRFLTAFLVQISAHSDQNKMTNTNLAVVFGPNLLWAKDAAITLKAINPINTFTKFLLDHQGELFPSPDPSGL
UniProt P25789, sequence (P25789 whole entry): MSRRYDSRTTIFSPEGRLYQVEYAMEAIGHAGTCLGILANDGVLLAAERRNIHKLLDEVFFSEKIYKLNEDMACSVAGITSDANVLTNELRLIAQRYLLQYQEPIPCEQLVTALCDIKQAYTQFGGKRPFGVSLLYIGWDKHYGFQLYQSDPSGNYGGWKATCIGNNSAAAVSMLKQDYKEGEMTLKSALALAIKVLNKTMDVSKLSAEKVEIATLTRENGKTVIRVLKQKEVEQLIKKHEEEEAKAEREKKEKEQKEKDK
UniProt P51946, sequence (P51946 whole entry): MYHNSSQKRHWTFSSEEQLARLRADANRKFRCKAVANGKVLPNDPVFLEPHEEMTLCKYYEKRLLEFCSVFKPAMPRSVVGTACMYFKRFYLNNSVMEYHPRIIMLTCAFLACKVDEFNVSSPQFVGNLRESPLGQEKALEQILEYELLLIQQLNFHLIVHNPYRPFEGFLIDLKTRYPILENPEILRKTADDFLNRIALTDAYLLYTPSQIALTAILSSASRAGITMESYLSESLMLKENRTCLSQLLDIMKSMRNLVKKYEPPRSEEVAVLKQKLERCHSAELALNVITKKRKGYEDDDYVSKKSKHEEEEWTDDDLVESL

Target	thermal stability z-score
MRPS10 (UniProt P82664)	-0.41
CTPS1 (UniProt P17812)	-0.159
CMTR2 (UniProt Q8IYT2)	0.107
ARHGAP1 (UniProt Q07960)	-1.02
CSNK2A1 (UniProt P68400)	0.541
OSBPL5 (UniProt Q9H0X9)	-0.28
HRSP12 (UniProt P52758)	0.703
CUL3 (UniProt Q13618)	-0.1
LMAN2 (UniProt Q12907)	-1.93
HIF1AN (UniProt Q9NWT6)	-0.806
HPS5 (UniProt Q9UPZ3)	-0.0872
RCOR3 (UniProt Q9P2K3)	0.0711
KPNA4 (UniProt O00629)	0.791
DCTN4 (UniProt Q9UJW0)	-0.368
DTD1 (UniProt Q8TEA8)	0.65
ATM (UniProt Q13315)	0.678
CCNH (UniProt P51946)	-0.00877
FECH (UniProt P22830)	0.24
TOMM34 (UniProt Q15785)	0.52
HSPH1 (UniProt Q92598)	-0.0648
SLC25A11 (UniProt Q02978)	0.183
STAM (UniProt Q92783)	-0.258
DCK (UniProt P27707)	0.519
SLC25A15 (UniProt Q9Y619)	0.309

Target	thermal stability z-score
POLR2A (UniProt P24928)	0.89
PSMG4 (UniProt Q5JS54)	-1.42
COL4A3BP (UniProt Q9Y5P4)	-0.466
COX6C (UniProt P09669)	0.703
PAPOLA (UniProt P51003)	-0.22
ARAP1 (UniProt Q96P48)	-0.133
SCO2 (UniProt O43819)	-0.169
SCAMP2 (UniProt O15127)	0.21
PABPC1 (UniProt P11940)	0.469
GLTSCR2 (UniProt Q9NZM5)	0.409
NOTCH2 (UniProt Q04721)	-1.45
ATPAF2 (UniProt Q8N5M1)	-0.263
TBC1D4 (UniProt O60343)	-0.14
RSL24D1 (UniProt Q9UHA3)	1.21
GRB10 (UniProt Q13322)	-0.159
NFXL1 (UniProt Q6ZNB6)	-0.724
NAP1L1 (UniProt P55209)	-0.552
BRAT1 (UniProt Q6PJG6)	-0.267
DNAJC17 (UniProt Q9NVM6)	0.0174
CPA4 (UniProt Q9UI42)	-0.883
SPTLC2 (UniProt O15270)	-0.0734
GEMIN5 (UniProt Q8TEQ6)	-0.411
LDHB (UniProt P07195)	0.679
RCC2 (UniProt Q9P258)	-0.997

Target	thermal stability z-score
RRAS2 (UniProt P62070)	0.129
SCYL2 (UniProt Q6P3W7)	-0.369
HMG20B (UniProt Q9P0W2)	-0.211
SP3 (UniProt Q02447)	-0.177
TRUB1 (UniProt Q8WWH5)	-0.102
PPP2CB (UniProt P62714)	0.564
OAS1 (UniProt P00973)	-0.156
PTTG1 (UniProt O95997)	-1.19
ALG6 (UniProt Q9Y672)	0.3
HEBP2 (UniProt Q9Y5Z4)	0.891
ARF4 (UniProt P18085)	-0.409
MATK (UniProt P42679)	-0.101
EIF4ENIF1 (UniProt Q9NRA8)	-0.03
PAP1 (UniProt Q06141)	-0.00124
DNAJB2 (UniProt P25686)	0.422
ADAM10 (UniProt O14672)	-1.72
DTYMK (UniProt P23919)	-0.383
CRAT (UniProt P43155)	0.0164
PSMA4 (UniProt P25789)	1.29
PRKAA1 (UniProt Q13131)	-0.417
PAFAH2 (UniProt Q99487)	0.543
C2CD5 (UniProt Q86YS7)	0.332
EMC8 (UniProt O43402)	0.0729

same assay, conditions: HeLa; lipoamide concentration 100 µM; arsenate co-treatment: none

Target	thermal stability z-score
MRPS10 (UniProt P82664)	-0.358
CTPS1 (UniProt P17812)	-0.286
CMTR2 (UniProt Q8IYT2)	0.13
ARHGAP1 (UniProt Q07960)	-0.692
CSNK2A1 (UniProt P68400)	0.00111
OSBPL5 (UniProt Q9H0X9)	-0.534
HRSP12 (UniProt P52758)	0.341
CUL3 (UniProt Q13618)	-0.422
LMAN2 (UniProt Q12907)	-1.77
HIF1AN (UniProt Q9NWT6)	-0.553
HPS5 (UniProt Q9UPZ3)	0.00734
RCOR3 (UniProt Q9P2K3)	0.0826
KPNA4 (UniProt O00629)	0.48
DCTN4 (UniProt Q9UJW0)	-0.0931
DTD1 (UniProt Q8TEA8)	0.308
ATM (UniProt Q13315)	-0.445
CCNH (UniProt P51946)	0.0852
FECH (UniProt P22830)	0.0849
TOMM34 (UniProt Q15785)	0.356
HSPH1 (UniProt Q92598)	-0.0435
SLC25A11 (UniProt Q02978)	0.431
STAM (UniProt Q92783)	0.0211
DCK (UniProt P27707)	0.335
SLC25A15 (UniProt Q9Y619)	0.0332

Target	thermal stability z-score
POLR2A (UniProt P24928)	0.82
PSMG4 (UniProt Q5JS54)	-1.53
COL4A3BP (UniProt Q9Y5P4)	0.862
COX6C (UniProt P09669)	0.431
PAPOLA (UniProt P51003)	-0.103
ARAP1 (UniProt Q96P48)	-0.0899
SCO2 (UniProt O43819)	0.0623
SCAMP2 (UniProt O15127)	-0.804
PABPC1 (UniProt P11940)	0.549
GLTSCR2 (UniProt Q9NZM5)	-0.522
NOTCH2 (UniProt Q04721)	-1.57
ATPAF2 (UniProt Q8N5M1)	-0.0435
TBC1D4 (UniProt O60343)	0.292
RSL24D1 (UniProt Q9UHA3)	0.133
GRB10 (UniProt Q13322)	-0.12
NFXL1 (UniProt Q6ZNB6)	-0.558
NAP1L1 (UniProt P55209)	-0.224
BRAT1 (UniProt Q6PJG6)	-0.15
DNAJC17 (UniProt Q9NVM6)	0.0121
CPA4 (UniProt Q9UI42)	-0.642
SPTLC2 (UniProt O15270)	-0.585
GEMIN5 (UniProt Q8TEQ6)	-0.402
LDHB (UniProt P07195)	0.658
RCC2 (UniProt Q9P258)	-0.671

Target	thermal stability z-score
RRAS2 (UniProt P62070)	0.0499
SCYL2 (UniProt Q6P3W7)	-0.657
HMG20B (UniProt Q9P0W2)	-0.0202
SP3 (UniProt Q02447)	-0.427
TRUB1 (UniProt Q8WWH5)	0.175
PPP2CB (UniProt P62714)	0.167
OAS1 (UniProt P00973)	0.0182
PTTG1 (UniProt O95997)	-1.5
ALG6 (UniProt Q9Y672)	0.171
HEBP2 (UniProt Q9Y5Z4)	0.694
ARF4 (UniProt P18085)	-0.09
MATK (UniProt P42679)	-0.0941
EIF4ENIF1 (UniProt Q9NRA8)	0.00167
PAP1 (UniProt Q06141)	-0.19
DNAJB2 (UniProt P25686)	0.0161
ADAM10 (UniProt O14672)	-1.52
DTYMK (UniProt P23919)	0.537
CRAT (UniProt P43155)	0.114
PSMA4 (UniProt P25789)	0.788
PRKAA1 (UniProt Q13131)	-0.0988
PAFAH2 (UniProt Q99487)	-0.499
C2CD5 (UniProt Q86YS7)	0.297
EMC8 (UniProt O43402)	0.209

compound: O=[As]([O-])(O)O.[K+] [potassium arsenate]; assay: as above; settings: HeLa; arsenate concentration 1 mM
Procedure: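 Cellular thermal proteome profiling in HeLa cells treated with 1 mM arsenate for 1 h (DMSO pretreatment), heated to ten temperatures (37-66.3 °C). Soluble protein was quantified by TMT mass spectrometry relative to DMSO controls; the thermal stability score was transformed to a z-score; mean of n = 3 experiments.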

Target	thermal stability z-score
MRPS10 (UniProt P82664)	-0.309
CTPS1 (UniProt P17812)	-0.228
CMTR2 (UniProt Q8IYT2)	-0.0808
ARHGAP1 (UniProt Q07960)	-0.115
CSNK2A1 (UniProt P68400)	0.489
OSBPL5 (UniProt Q9H0X9)	-0.386
HRSP12 (UniProt P52758)	0.206
CUL3 (UniProt Q13618)	0.158
LMAN2 (UniProt Q12907)	0.284
HIF1AN (UniProt Q9NWT6)	0.463
HPS5 (UniProt Q9UPZ3)	-0.219
RCOR3 (UniProt Q9P2K3)	0.119
KPNA4 (UniProt O00629)	0.399
DCTN4 (UniProt Q9UJW0)	-0.11
DTD1 (UniProt Q8TEA8)	0.163
ATM (UniProt Q13315)	0.00628
CCNH (UniProt P51946)	0.325
FECH (UniProt P22830)	-0.203
TOMM34 (UniProt Q15785)	-0.0204
HSPH1 (UniProt Q92598)	0.196
SLC25A11 (UniProt Q02978)	0.593
STAM (UniProt Q92783)	-0.0683
DCK (UniProt P27707)	-5
SLC25A15 (UniProt Q9Y619)	0.22

Target	thermal stability z-score
POLR2A (UniProt P24928)	-0.684
PSMG4 (UniProt Q5JS54)	-1.38
COL4A3BP (UniProt Q9Y5P4)	0.568
COX6C (UniProt P09669)	0.836
PAPOLA (UniProt P51003)	-0.119
ARAP1 (UniProt Q96P48)	-0.345
SCO2 (UniProt O43819)	0.538
SCAMP2 (UniProt O15127)	-1.4
PABPC1 (UniProt P11940)	-0.758
GLTSCR2 (UniProt Q9NZM5)	-2.53
NOTCH2 (UniProt Q04721)	-0.309
ATPAF2 (UniProt Q8N5M1)	-0.318
TBC1D4 (UniProt O60343)	0.51
RSL24D1 (UniProt Q9UHA3)	-3.91
GRB10 (UniProt Q13322)	-0.636
NFXL1 (UniProt Q6ZNB6)	-0.813
NAP1L1 (UniProt P55209)	-0.164
BRAT1 (UniProt Q6PJG6)	0.562
DNAJC17 (UniProt Q9NVM6)	-0.299
CPA4 (UniProt Q9UI42)	0.188
SPTLC2 (UniProt O15270)	-0.25
GEMIN5 (UniProt Q8TEQ6)	-0.93
LDHB (UniProt P07195)	0.13
RCC2 (UniProt Q9P258)	-0.0515

Target	thermal stability z-score
RRAS2 (UniProt P62070)	0.544
SCYL2 (UniProt Q6P3W7)	-0.414
HMG20B (UniProt Q9P0W2)	0.0621
SP3 (UniProt Q02447)	-0.584
TRUB1 (UniProt Q8WWH5)	0.231
PPP2CB (UniProt P62714)	-0.474
OAS1 (UniProt P00973)	-0.247
PTTG1 (UniProt O95997)	-1.58
ALG6 (UniProt Q9Y672)	-0.233
HEBP2 (UniProt Q9Y5Z4)	0.0122
ARF4 (UniProt P18085)	-0.609
MATK (UniProt P42679)	-0.0451
EIF4ENIF1 (UniProt Q9NRA8)	-0.0325
PAP1 (UniProt Q06141)	-0.156
DNAJB2 (UniProt P25686)	0.142
ADAM10 (UniProt O14672)	-0.0434
DTYMK (UniProt P23919)	-1.22
CRAT (UniProt P43155)	0.0734
PSMA4 (UniProt P25789)	0.411
PRKAA1 (UniProt Q13131)	0.048
PAFAH2 (UniProt Q99487)	-0.363
C2CD5 (UniProt Q86YS7)	-0.133
EMC8 (UniProt O43402)	0.348
